According to patent US4902622A, “Novel α-1,6-glucosidase and process for producing the same” (Amano Pharmaceutical Co., Ltd., priority 1986, dated 1990):
Entries after “also recorded” stand apart in the source; their conditions may differ.

Columns and labels:
Assay type in all cases: biochemical, Bacillus sectorramus
α-1,6-glucosidase [1] = test: Influence of metal salt on enzyme activity; conditions: for Remaining activity (%): 50 mM acetic acid buffer (pH 4.5), 30 minutes at 40° C., final concentration of metal salt 5 mM; for Influence of metal salts: metal salt 5 mM
Description: (§1) 8. Assay of activity: 4 ml of 0.5% pullulan solution (pH 4.5) was added to 1 ml of an enzyme solution, and the reaction was carried out for 30 minutes at 40° C. Then, 2 ml of Somogyi solution was added, the mixture was heated for 20 minutes and then cooled. After cooling, 1 ml of ammonium arsenomolybdenate was added, and water was added to a total volume of 25 ml. Absorbance of this solution was measured at 500 nm, with a layer thickness of 1 cm. Under these conditions, the activity was defined as one unit when reducing sugar corresponding to 1 μmol of glucose was produced per minute.
10. […] Influences of various metal salts are shown in Table 5, indicating the remaining activity after treatment in a 50 mM acetic acid buffer (pH 4.5) for 30 minutes at 40° C., with a final concentration of metal salt of 5 mM.

α-1,6-glucosidase [2] = test: Influence of inhibitor on enzyme activity
Description: as §1

α-1,6-glucosidase [3] = test: Relative activity to polysaccharides (substrate specificity); conditions: activity of the enzyme on the polysaccharide, pullulan = 100
Description: 3. Relative activity to polysaccharides: Table 3 compares the relative activity of the enzyme on pullulan to relative activity on soluble maize amylopectin, soluble starch, oyster glycogen, hare glycogen, maize amylopectin, and potato amylopectin.
as §1

α-1,6-glucosidase [4] = test: Km value and Vmax to substrates; conditions: substrate of the purified enzyme
From the text: After the cultivation period, the cells were removed from the culture broth, and the supernatant fraction thus obtained was concentrated to obtain a preparation of crude pullulanase. This preparation was fractionated with ammonium sulfate, then subjected to affinity chromatography with γ-cyclodextrin-cephalose 6B (produced by coupling γ-cyclodextrin to activated Sepharose 6B (trade mark, Pharmacia Fine Chemical Co.)) and purified to a single band by electrophoresis utilizing SDS-polyacrylamide gel. The following explains the enzymochemical properties of the α-1,6-glucosidase thus purified.
2. Km value and Vmax to substrates: The Km value (mg/ml) and Vmax value (μmol/min/mg protein) of the enzyme to pullulan, potato amylopectin, and corn amylopectin are as shown in Table 2:
as §1

[5] = 50 mM acetic acid buffer (pH 4.5), 30 minutes at 40° C., final concentration of inhibitor 1 mM

Cl.Cl.[Ag] [AgCl2]
Remaining activity (%) (α-1,6-glucosidase [1]): 2.7% | Influence of metal salts (α-1,6-glucosidase [1]; listed as Ag^2+): deactivated; also recorded: losses activity

O.O.O.O.O.[Cd+2].[Cd+2].[Cl-].[Cl-].[Cl-].[Cl-] [CdCl2.21/2H2 O]
Remaining activity (%) (α-1,6-glucosidase [1]): 92.4% | Influence of metal salts (α-1,6-glucosidase [1]): negligibly affected

[Ca+2].[Cl-].[Cl-] [CaCl2]
Remaining activity (%) (α-1,6-glucosidase [1]): 79.1%

O=C(O)CI [Monoiodo-acetic acid]
Remaining activity (%) (α-1,6-glucosidase [2]; pH 4.5): 66.5%

[Cl][Fe][Cl] [FeCl2.nH2 O]
Remaining activity (%) (α-1,6-glucosidase [1]): 82.1%

Soluble starch
Relative activity (%) (α-1,6-glucosidase [3]): 6.7%

Pullulan
Relative activity (%) (α-1,6-glucosidase [3]): 100% | Km (α-1,6-glucosidase [4]): 0.14 mg/mL | Vmax (α-1,6-glucosidase [4]): 70.0 μmol/min/mg protein

c1cnc2c(c1)ccc1cccnc12 [o-phenanthroline]
Remaining activity (%) (α-1,6-glucosidase [2]; [5]): 109.0% | Influence of inhibitor (α-1,6-glucosidase [2]; inhibitor 1 mM): not and not inhibited

[Cl][Fe]([Cl])[Cl] [FeCl3]
Remaining activity (%) (α-1,6-glucosidase [1]): 57.8% | Influence of metal salts (α-1,6-glucosidase [1]): inhibited

O.O.O.O.O.O.[Cl][Ni][Cl] [NiCl2.6H2 O]
Remaining activity (%) (α-1,6-glucosidase [1]): 102.7% | Influence of metal salts (α-1,6-glucosidase [1]): negligibly affected

O.O.[Cl][Sn][Cl] [SnCl2.2H2 O]
Remaining activity (%) (α-1,6-glucosidase [1]): 82.1%

[Ba+2].[Cl-].[Cl-] [BaCl2]
Remaining activity (%) (α-1,6-glucosidase [1]): 98.9% | Influence of metal salts (α-1,6-glucosidase [1]): negligibly affected

CCN1C(=O)C=CC1=O [N--ethylmaleimide]
Remaining activity (%) (α-1,6-glucosidase [2]; [5]): 65.5%

O.O.O.O.O.O.[Cl-].[Cl-].[Mg+2] [MgCl2.6H2 O]
Remaining activity (%) (α-1,6-glucosidase [1]): 91.3%

[Cl-].[Cl-].[Sr+2] [SrCl2]
Remaining activity (%) (α-1,6-glucosidase [1]): 74.5%

CCCCCCCCCCCCOS(=O)(=O)[O-].[Na+] [SDS, sodium dodecylsulfate]
Remaining activity (%) (α-1,6-glucosidase [2]; [5]): 1.5%

O=C(O)CN(CCN(CC(=O)O)CC(=O)O)CC(=O)O [EDTA]
Remaining activity (%) (α-1,6-glucosidase [2]; pH 4.5): 93.1%

O.O.[Cl][Cu][Cl] [CuCl2.2H2 O]
Remaining activity (%) (α-1,6-glucosidase [1]): 73.4%

O=C(O)c1cc[c]([Hg][Cl])cc1 [PCMB, p-chloromercuribenzoic acid]
Remaining activity (%) (α-1,6-glucosidase [2]; [5]): 27.1%

[Cl-].[Cl-].[Co+2] [CoCl2]
Remaining activity (%) (α-1,6-glucosidase [1]): 87.7%

O.O.O.O.[Cl][Mn][Cl] [MnCl2.4H2 O]
Remaining activity (%) (α-1,6-glucosidase [1]): 85.9% | Influence of metal salts (α-1,6-glucosidase [1]): negligibly affected

[Cl-].[Cl-].[Zn+2] [ZnCl2]
Remaining activity (%) (α-1,6-glucosidase [1]): 97.3% | Influence of metal salts (α-1,6-glucosidase [1]): negligibly affected

[Cl][Hg][Cl] [HgCl2]
Remaining activity (%) (α-1,6-glucosidase [1]): 0% | Influence of metal salts (α-1,6-glucosidase [1]; listed as Hg^2+): deactivated; also recorded: losses activity
